From patent US10167266B2, “Sodium channel blockers” (Parion Sciences, Inc., priority 2002, dated 2019)
Where “and” joins values, the source holds several entries; their conditions need not be identical. Equal values may be shown once. Where a name gives a salt, the structure may show the parent alone.

Test system: sodium channel (ENaC), canine bronchial epithelia
Experiment: Sodium channel blocking activity: inhibition of short circuit current (ISC) in airway epithelial monolayers in Ussing chambers
Format: cell-based
Conditions: for Fold Amiloride* / Fold Enhancement Over Amiloride: potency in canine bronchial epithelia relative to amiloride; for Fold potency relative to amiloride: Example 51
Protocol: One assay used to assess mechanism of action and/or potency of the compounds of the present invention involves the determination of lumenal drug inhibition of airway epithelial sodium currents measured under short circuit current (ISC) using airway epithelial monolayers mounted in Ussing chambers. Cells obtained from freshly excised human, dog, sheep or rodent airways are seeded onto porous 0.4 micron Snapwell™ Inserts (CoStar), cultured at air-liquid interface (ALI) conditions in hormonally defined media, and assayed for sodium transport activity (ISC) while bathed in Krebs Bicarbonate Ringer (KBR) in Using chambers. All test drug additions are to the lumenal bath with half-log dose addition protocols (from 1×10^−11 M to 3×10^−5 M), and the cumulative change in ISC (inhibition) recorded. All drugs are prepared in dimethyl sulfoxide as stock solutions at a concentration of 1×10^−2 M and stored at −20° C. Eight preparations are typically run in parallel; two preparations per run incorporate amiloride and/or benzamil as positive controls. After the maximal concentration (5×10^−5 M) is administered, the lumenal bath is exchanged three times with fresh drug-free KBR solution, and the resultant ISC measured after each wash for approximately 5 minutes in duration. Reversibility is defined as the percent return to the baseline value for sodium current after the third wash. All data from the voltage clamps are collected via a computer interface and analyzed off-line.
Dose-effect relationships for all compounds are considered and analyzed by the Prism 3.0 program. IC50 values, maximal effective concentrations, and reversibility are calculated and compared to amiloride and benzamil as positive controls.
Amiloride was also tested in this assay as a positive control. The results for the compounds of the present invention are reported as fold-enhancement values relative to amiloride.

N=C(NCCCCc1ccccc1OCC(O)CO)NC(=O)c1nc(Cl)c(N)nc1N (stereo not drawn) [drawing 69: R=CH2OH, Ortho, 4-[2-(2-,3-Dihydroxypropyloxy)phenyl)]butylamidino-3,5-diamino-6-chloropyrazinecarboxamide hydrochloride]
Fold Amiloride* (Example 50): 24.0 ± 1.0 (2) fold

COCCOCCOc1ccc(CCCCNC(=N)NC(=O)c2nc(Cl)c(N)nc2N)cc1 [drawing 50: n=2, 4-[4-(1,4,7-Trioxaoct-1-yl)phenyl]-butyl amidino-3,5-diamino-6-chloropyrazinecarboxamide hydrochloride]
Fold Enhancement Over Amiloride (Example 30): 42 fold | Fold Amiloride* (Example 48): 76.1 (1) fold

N=C(NCCc1ccc(N)cc1)NC(=O)c1nc(Cl)c(N)nc1N [drawing 47: n=2, 4, NH2, 4-(4-Aminophenyl)ethylamidino-3,5-diamino-6-chloropyrazinecarboxamide hydrochloride]
Fold Enhancement Over Amiloride (Example 28): 12.7 fold

CCOC(=O)COc1ccc(CCCCNC(N)=NC(=O)c2nc(Cl)c(N)nc2N)cc1 [drawing 68: OCH2CO2ET, (4-{4-[N′-(3,5-Diamino-6-chloropyrazine-2-carbonyl)guanidino]butyl}phenoxy)acetic acid ethyl ester]
Fold Amiloride* (Example 49): 20 (1) fold

COC(=O)c1ccc(CCCCNC(=N)NC(=O)c2nc(Cl)c(N)nc2N)cc1 [drawing 51: R^5=—CO2CH3, 4-(4-Carboxymethylphenyl)butylamidino-3,5-diamino-6-chloropyrazinecarboxamide hydrochloride]
Fold Enhancement Over Amiloride (Example 31): 26.5 fold

N=C(NCCCCc1ccc(C(=O)NCCO)cc1)NC(=O)c1nc(Cl)c(N)nc1N [drawing 62: X=C═O, Y=NH(CH2)2—OH, 4-{4-[N-(3,5-diamino-6-chloropyrazine-2-carbonyl)guanidino]butyl}-N-(2-hydroxyethyl)benzamide hydrochloride]
Fold Amiloride* (Example 43): 28.5 (1) fold

CC1(C)OCC(COc2ccc(CCCCNC(=N)NC(=O)c3nc(Cl)c(N)nc3N)cc2)O1 (stereo not drawn) [drawing 48: R=H3CxCH3*, 4-[4-(2,2 Dimethyl-[1,3]dioxolan-4 yl)methyloxyphenyl]butylamidino-3,5-diamino-6-chloropyrazinecarboxamide]
Fold Enhancement Over Amiloride (Example 29): 91 fold

N=C(NCCCCc1cccc(OCC(O)CO)c1)NC(=O)c1nc(Cl)c(N)nc1N (stereo not drawn) [drawing 69: R=CH2OH, Meta, 4-[3-(2-,3-Dihydroxypropyloxyl)phenyl)]butylamidino-3,5-diamino-6-chloropyrazinecarboxamide hydrochloride]
Fold Amiloride* (Example 50): 40 (1) fold

COCCOc1ccc(CCCCNC(=N)NC(=O)c2nc(Cl)c(N)nc2N)cc1.Cl [drawing 50: n=1, 4-[4-(1,4-Dioxapent-1-yl)phenyl]butylamidino-3,5-diamino-6-chloropyrazinecarboxamide hydrochloride]
Fold Enhancement Over Amiloride (Example 30): 87 fold | Fold Amiloride* (Example 48): 51.5 ± 14.9 (2) fold

N=C(NCCCCc1ccc(OCCN)cc1)NC(=O)c1nc(Cl)c(N)nc1N [drawing 61: R=NH2, n=2, 4-[4-(2-aminoethyloxy)phenyl)butylamidino-3,5-diamino-6-chloropyrazinecarboxamide hydrochloride]
Fold potency relative to amiloride: 56.5 ± 0 | Fold Amiloride* (Example 42, hydrochloride): 60.1 ± 1.3 (2) fold and 56.5 ± 0 (4) ^ fold | Fold Amiloride* (Example 45): 56.5 ± 24 (4) fold | Fold Amiloride* (Example 48): 84.9 ± 30.3 (6) fold

N=C(NCCCCc1ccc(N)cc1)NC(=O)c1nc(Cl)c(N)nc1N [drawing 60: R=NH2, N=0, 4-[4-(4-Amino)phenyl)]butylamidino-3,5-diamino-6-chloropyrazinecarboxamide hydrochloride]
Fold potency relative to amiloride: 32.6 ± 2 | Fold Amiloride* (Example 41): 32.6 ± 2.0 (3) fold | Fold Amiloride* (Example 43): 32.6 ± 2 (3) fold | Fold Amiloride* (Example 48): 32.6 ± 2 (3) ^ fold

CC(C)(C)OC(=O)NCCOc1ccc(CCCCNC(N)=NC(=O)c2nc(Cl)c(N)nc2N)cc1 [drawing 64: X=NHCO2(CH3)3, [2-(4-{4-[N′-(3,5-Diamino-6-chloropyrazine-2-carbonyl)guanidino]butyl}phenoxy)ethyl]-carbamic acid tert-butyl ester]
Fold Amiloride* (Example 45): 51.7 ± 10.1 (2) fold | Fold Amiloride* (Example 49): 51.7 ± 10.1 (2) fold

Cl.Cl.N=C(NCCCCc1ccc(OCCN(C[C@H](O)[C@H](O)CO)C[C@H](O)[C@H](O)CO)cc1)NC(=O)c1nc(Cl)c(N)nc1N [drawing 67: O CH2 CH2 NR R^a,c (r13), N-[4-(4-{2-[bis-((2S,3R)-2,3,4-trihydroxybutyl)amino]ethoxy}phenyl)butyl]-N′-(3,5-diamino-6-chloropyrazine-2-carbonyl)guanidine dihydrochloride]
Fold Amiloride* (Example 48): 73.2 ± 49.3 (9) fold

N=C(NCCCCc1ccc(CCO)cc1)NC(=O)c1nc(Cl)c(N)nc1N [drawing 60: R=OH, N=2, 4-(4-(2-Hydroxyethyl)phenyl)butylamidino-3,5-diamino-6-chloropyrazinecarboxamide hydrochloride]
Fold Amiloride* (Example 41): 79.2 ± 30.6 (4) fold | Fold Amiloride* (Example 47): 79.2 ± 30.6 (4) fold

Cl.NC(=NCCCCc1ccc(OCCCO)cc1)NC(=O)c1nc(Cl)c(N)nc1N [drawing 61: R=OH, n=3]
Fold Amiloride* (Example 42): 105.2 ± 26.6 (7) fold

N=C(NCCCCc1ccc(OCC(N)=O)cc1)NC(=O)c1nc(Cl)c(N)nc1N [drawing 65: R=—NH2, 2-{4-[N′-(3,5-diamino-6-chloropyrazine-2-carbonyl)guanidino]-4-butylphenoxy}acetamide hydrochloride]
Fold Amiloride* (Example 46): 48.2 ± 24.1 (7) fold

CC(=O)OCC(COc1ccc(CCCCNC(=N)NC(=O)c2nc(Cl)c(N)nc2N)cc1)OC(C)=O (stereo not drawn) [drawing 48: R=drawing 49, 4-[4-(2,3-Diacetoxypropyloxy)phenyl]butylamidino-3,5-diamino-6-chloropyrazinecarboxamide]
Fold Enhancement Over Amiloride (Example 29): 36 fold

Cl.Cl.N=C(NCCCCc1ccc(OCCNC[C@H](O)[C@H](O)CO)cc1)NC(=O)c1nc(Cl)c(N)nc1N [drawing 67: O CH2 CH2 NH R^a, N-[4-(4-{2-[(2S,3R)-2,3,4-trihydroxybutylamino]ethoxy}phenyl)butyl]-N′-(3,5-diamino-6-chloropyrazine-2-carbonyl)guanidine dihydrochloride]
Fold Amiloride* (Example 48): 52.9 ± 14.3 (5) fold

NC(=NC(=O)c1nc(Cl)c(N)nc1N)NCCCCc1ccc(OS(=O)(=O)O)cc1 [drawing 51: R^5=—O—SO3H, 4-(4-Sulfatephenyl)butylamidino-3,5-diamino-6-chloropyrazinecarboxamide]
Fold Enhancement Over Amiloride (Example 31): 27.7 fold

Cl.N=C(NCCCCc1ccc(CO)cc1)NC(=O)c1nc(Cl)c(N)nc1N [drawing 51: R^5=—CH2OH, 4-(4-Hydroxymethylphenyl)butylamidino-3,5-diamino-6-chloropyrazinecarboxamide hydrochloride]
Fold potency relative to amiloride: 50.9 ± 19.8 (3) | Fold Enhancement Over Amiloride (Example 31): 57 fold | Fold Amiloride* (Example 41): 50.9 ± 19.8 (3) fold | Fold Amiloride* (Example 44): 50.9 ± 19.8 (3) fold

NC(=NC(=O)c1nc(Cl)c(N)nc1N)NCCCCc1ccc(OC2OC(C(=O)O)C(O)C(O)C2O)cc1 (stereo not drawn) [drawing 51: R^5=—O-Glucuronide Na^+ Salt, 4-[4-(5-Carboxy-glucopyranonuronate-1-O-yl)-phenyl]butylamidino-3,5-diamino-6-chloropyrazinecarboxamide]
Fold Enhancement Over Amiloride (Example 31): 11.2 fold

N=C(NCCCCc1cccc(OCCO)c1)NC(=O)c1nc(Cl)c(N)nc1N [drawing 69: R=H, Meta, 4-[3-(2-Hydroxyethyloxy)phenyl)butylamidino-3,5-diamino-6-chloropyrazinecarboxamide hydrochloride]
Fold Amiloride* (Example 50): 41.1 ± 8.5 (2) fold

Cl.NC(=NCCCCc1ccc(OCCO)cc1)NC(=O)c1nc(Cl)c(N)nc1N [drawing 61: R=OH, n=2]
Fold potency relative to amiloride: 84.9 ± 30.3 | Fold Amiloride* (Example 42): 84.9 ± 30.3 (6) fold | Fold Amiloride* (Example 47): 84.9 ± 30.3 (6) fold | Fold Amiloride* (Example 50): 80.3 ± 25.5 (9) fold

N=C(NCCCCc1ccc(OCCCO)cc1)NC(=O)c1nc(Cl)c(N)nc1N [drawing 61: R=OH, n=3, 4-[4-(3-Hydroxypropyloxy)phenyl)]butylamidino-3,5-diamino-6-chloropyrazinecarboxamide hydrochloride]
Fold potency relative to amiloride: 105.2 ± 26.6 | Fold Amiloride* (Example 47): 105.2 ± 26.6 (7) fold

Cl.N=C(NCCCCc1ccc(OCC(O)CO)cc1)NC(=O)c1nc(Cl)c(N)nc1N (stereo not drawn) [drawing 48: R=H, 4-[4(2,3-Dihydroxypropyloxyl)phenyl]butylamidino-3,5-diamino-6-chloropyrazinecarboxamide hydrochloride]
Fold Enhancement Over Amiloride (Example 29): 124 fold | Fold Amiloride* (Example 47): 51.95 (50) fold | Fold Amiloride* (Example 48): 51.95 (79) fold | Fold Amiloride* (Example 50): 51.55 (79) fold
